{
  "source": "ChEMBL document CHEMBL1140536",
  "about": "“Versatile templates for the development of novel kinase inhibitors: Discovery of novel CDK inhibitors” (Bioorg Med Chem Lett, 2007)",
  "data": [
    {"system": "A2780", "experiment": "Growth inhibition of A2780 cells after 24 hrs by thymidine incorporation assay", "assay_type": "functional, cell-based", "conditions": "Homo sapiens, A2780, 24 h", "units": {"IC50": "nM"}, "values": [
      {"compound": "Brc1cnc2c(NCc3ccncc3)nc(-c3ccccc3)cn12", "IC50": 2000}
    ]},
    {"system": "not listed separately", "experiment": "Inhibition of recombinant cyclin A/CDK2 expressed in Sf9 cells", "parameters": "species or system Homo sapiens", "conditions": "not given", "units": {"IC50": "nM"}, "values": [
      {"compound": "Fc1ccccc1-c1cn2ccnc2c(NCc2ccncc2)n1", "IC50": 800},
      {"compound": "Brc1cnc2c(NCc3ccncc3)cc(-c3ccccc3)cn12", "IC50": 700},
      {"compound": "Brc1cnn2c(NCc3ccncc3)cc(-c3ccccc3)cc12", "IC50": 4500},
      {"compound": "c1ccc(-c2cc(NCc3ccncc3)n3nccc3n2)cc1", "IC50": 500},
      {"compound": "Clc1cccc(-c2cc(NCc3ccncc3)n3nccc3n2)c1Cl", "IC50": 500},
      {"compound": "Brc1cnc2c(NCc3ccncc3)nc(-c3ccccc3)cn12", "IC50": 440}
    ]}
  ]
}
